Type in all cases: functional, cell-based
The test system of one experiment is SMMC-7721. The experiment is described as follows: Antiproliferative activity against human SMMC7721 cells after 72 hrs by MTT assay. To be noted: SMMC-7721, 72 h.
A further experiment deals with MGC-803. Kind of experiment: Antiproliferative activity against human MGC803 cells after 72 hrs by MTT assay. To be noted: MGC-803, 72 h. In general terms: Tetrazolium dyes change colour on reduction, which living cells bring about.
Another experiment has as its system PC-3. The experiment is described as follows: Antiproliferative activity against human PC3 cells after 72 hrs by MTT assay. The settings on record: PC-3, 72 h.
The subject of a further experiment is EC9706. Kind of experiment: Antiproliferative activity against human EC9706 cells after 72 hrs by MTT assay. To be noted: EC9706, 72 h.
For another experiment, the system named is ECa-109 cell line. The experiment is described as follows: Antiproliferative activity against human EC109 cells after 72 hrs by MTT assay. To be noted: ECa-109, 72 h.
In a further experiment the test system is MCF7. Kind of experiment: Antiproliferative activity against human MCF7 cells after 72 hrs by MTT assay. The settings on record: MCF7, 72 h.

As for `O=C(N/N=C/c1cc(Cl)ccc1O)c1cccc(S(=O)(=O)N2CCOCC2)c1`, the IC50 – broadly, the point on the concentration scale where inhibition reaches its midpoint – with SMMC-7721 stood at 6.82 µM; in the experiment on MGC-803, 11 µM; in the experiment on PC-3, 10.5 µM; in the experiment on EC9706, 2.15 µM; with ECa-109 cell line, 2.84 µM; in the experiment with MCF7, 16.4 µM.

As for `C/C(=N\NC(=O)c1cccc(S(=O)(=O)N2CCOCC2)c1)c1cc(Br)ccc1O`, the IC50 in the experiment on SMMC-7721 came out at 2.41 µM; in the experiment with MGC-803, 18 µM; with PC-3, 6.89 µM; in the experiment with EC9706, 24.7 µM; in the experiment with ECa-109 cell line it was 5.28 µM; in the experiment on MCF7, 7.83 µM.

Regarding `CCOc1cccc(/C=N/NC(=O)c2cccc(S(=O)(=O)N3CCOCC3)c2)c1O`, the IC50 with SMMC-7721 turned out to be 6.99 µM; in the experiment on MGC-803, 18 µM; in the experiment on PC-3, 15.3 µM; in the experiment with EC9706, 15.4 µM; in the experiment on ECa-109 cell line it was 16.5 µM; with MCF7, 19.3 µM.

As to `O=C(N/N=C/c1ccco1)c1cccc(S(=O)(=O)N2CCOCC2)c1`, the IC50 in the experiment on SMMC-7721, in the experiment on MGC-803, with PC-3, in the experiment with EC9706, with ECa-109 cell line and with MCF7 was above 100 µM throughout.

On to `O=C(N/N=C/c1cccs1)c1cccc(S(=O)(=O)N2CCOCC2)c1`, for which the IC50 in the experiment on SMMC-7721, in the experiment on MGC-803, in the experiment on PC-3, in the experiment on EC9706, in the experiment with ECa-109 cell line and in the experiment on MCF7 was above 100 µM each time.

Consider `C/C(=N\NC(=O)c1cccc(S(=O)(=O)N2CCOCC2)c1)c1cccc(N)c1O`, for which the IC50 in the experiment with SMMC-7721 amounted to 2.33 µM; with MGC-803 it was 0.53 µM; with PC-3, 2.33 µM; in the experiment with EC9706, 3.52 µM; in the experiment on ECa-109 cell line it was 5.06 µM; in the experiment on MCF7, 1.01 µM.

For `C/C(=N\NC(=O)c1cccc(S(=O)(=O)N2CCOCC2)c1)c1cc(O)ccc1O`, the half-inhibitory concentration (IC50) was above 100 µM with SMMC-7721; 9.09 µM in the experiment on MGC-803; above 100 µM in the experiment with PC-3; 3.51 µM in the experiment with EC9706; 21.4 µM with ECa-109 cell line; above 100 µM in the experiment on MCF7.

`C/C(=N\NC(=O)c1cccc(S(=O)(=O)N2CCOCC2)c1)c1ccccc1O`: the IC50 was determined as 1.37 µM with SMMC-7721; 1.22 µM in the experiment on MGC-803; 2.81 µM in the experiment on PC-3; 1.22 µM with EC9706; 5.45 µM with ECa-109 cell line; 5.4 µM in the experiment with MCF7.

Consider `CCN(CC)c1ccc(/C=N/NC(=O)c2cccc(S(=O)(=O)N3CCOCC3)c2)c(O)c1`, for which the 50% inhibitory concentration (IC50) in the experiment on SMMC-7721 was 27.1 µM; in the experiment with MGC-803 it was 4.04 µM; in the experiment with PC-3, 14 µM; with EC9706 it was 0.92 µM; in the experiment on ECa-109 cell line it was 0.73 µM; in the experiment on MCF7 it was 3.52 µM.

Regarding `O=c1[nH]cc(F)c(=O)[nH]1` [FLUOROURACIL], the IC50 in the experiment on SMMC-7721 is 13.7 µM; with MGC-803, 9.24 µM; with PC-3, 6.27 µM; in the experiment on EC9706, 5.13 µM; with ECa-109 cell line it was 6.02 µM; in the experiment on MCF7, 18.8 µM.

With `C/C(=N\NC(=O)c1cccc(S(=O)(=O)N2CCOCC2)c1)c1cccc(N)c1`, the IC50 in the experiment on SMMC-7721, with MGC-803, in the experiment on PC-3, in the experiment on EC9706, in the experiment on ECa-109 cell line and in the experiment on MCF7 was above 100 µM each time.

As for `NNC(=O)c1cccc(S(=O)(=O)N2CCOCC2)c1`, the IC50 in the experiment with EC9706 and with ECa-109 cell line was above 100 µM throughout.

Regarding `O=C(N/N=C/c1cc(Br)ccc1O)c1cccc(S(=O)(=O)N2CCOCC2)c1`, the IC50 in the experiment on SMMC-7721 stood at 9.94 µM; with MGC-803, 14.8 µM; with PC-3, 7.23 µM; in the experiment with EC9706, 29.7 µM; with ECa-109 cell line, 11.7 µM; with MCF7, 26.6 µM.

Turning to `C/C(=N\NC(=O)c1cccc(S(=O)(=O)N2CCOCC2)c1)c1cccc(O)c1`, the IC50 with SMMC-7721, in the experiment on MGC-803, with PC-3, in the experiment with EC9706, with ECa-109 cell line and in the experiment on MCF7 was above 100 µM in each case.

For the compound `O=C(N/N=C/c1cc(Br)cc(Br)c1O)c1cccc(S(=O)(=O)N2CCOCC2)c1`, the half-inhibitory concentration (IC50) in the experiment on SMMC-7721 stood at 7.31 µM; in the experiment with MGC-803 it was 17.8 µM; in the experiment with PC-3, 9.7 µM; in the experiment on EC9706, 2.44 µM; in the experiment with ECa-109 cell line, 10.3 µM; in the experiment with MCF7, 16 µM.

As for `O=C(N/N=C/c1ccccc1O)c1cccc(S(=O)(=O)N2CCOCC2)c1`, the IC50 with SMMC-7721 was determined as 12.1 µM; with MGC-803 it was 25.3 µM; with PC-3, 13.8 µM; in the experiment on EC9706, 19.6 µM; with ECa-109 cell line, 14.4 µM; with MCF7 it was 29.1 µM.

Take `C/C(=N\NC(=O)c1cccc(S(=O)(=O)N2CCOCC2)c1)c1ccc(F)cc1`: the IC50 in the experiment with SMMC-7721 was above 100 µM; with MGC-803, above 100 µM; with PC-3 it was 81.3 µM; in the experiment on EC9706 it was above 100 µM; in the experiment with ECa-109 cell line, above 100 µM; with MCF7 it was above 100 µM.

Regarding `C/C(=N\NC(=O)c1cccc(S(=O)(=O)N2CCOCC2)c1)c1cc(F)ccc1O`, the half-inhibitory concentration (IC50) worked out at 1.15 µM in the experiment on SMMC-7721; 2.26 µM with MGC-803; 4.41 µM in the experiment on PC-3; 2.21 µM with EC9706; 3.27 µM in the experiment on ECa-109 cell line; 6.65 µM with MCF7.

With `O=C(N/N=C/c1ccccn1)c1cccc(S(=O)(=O)N2CCOCC2)c1`, the IC50 is above 100 µM in the experiment with SMMC-7721; 81.7 µM in the experiment with MGC-803; 88.1 µM in the experiment on PC-3; 44.3 µM in the experiment with EC9706; 55.7 µM with ECa-109 cell line; above 100 µM with MCF7.

Turning to `C/C(=N\NC(=O)c1cccc(S(=O)(=O)N2CCOCC2)c1)c1ccccc1`, the IC50 in the experiment with SMMC-7721, in the experiment with MGC-803, in the experiment on PC-3, in the experiment with EC9706, in the experiment on ECa-109 cell line and in the experiment on MCF7 was above 100 µM each time.

For `C/C(=N\NC(=O)c1cccc(S(=O)(=O)N2CCOCC2)c1)c1ccc(O)cc1`, the IC50 with SMMC-7721 is 88.5 µM; with MGC-803 it was 71.4 µM; in the experiment with PC-3, 36.2 µM; with EC9706, 71.4 µM; in the experiment on ECa-109 cell line it was 88.3 µM; with MCF7, above 100 µM.

The record behind these values is ChEMBL document CHEMBL4196033, “Potent hydrazone derivatives targeting esophageal cancer cells” (Eur J Med Chem, 2018).
